Measured values reported in patent US6310091A, “Fungicidal saponin, CAY-1, and isolation thereof from Capsium species fruit” (The United States of America as represented by the …, priority 2000, dated 2001).
Several values for one entry are separate records, joined by “and”; a condition that tells them apart may be missing. Identical values can stand only once. Like-named read-outs stand apart in the source and are kept apart here.

What was measured:
[1] = system: Aspergillus fumigatus; assay: Fungicidal bioassay on nongerminated and germinating conidia of A. fumigatus; assay type: cell-based
Procedure: 1. Filamentous fungi. Filamentous fungi used in bioassays included Aspergillus flavus, A. fumigatus, A. niger, A. parasiticus and Fusarium oxysporum. The fungicidal properties of CAY-1 for the nongerminated and germinating conidia of these fungi were determined separately as described by De Lucca et al. [Med. Mycol., 36:291-298 (1998)] and De Lucca et al. [Antimicrob. Agents Chemother. 43:371-373 (1999)]. […] Two separate experiments were conducted in each medium (n=8 per medium).
A suspension of the aforementioned fungi were prepared separately in the appropriate medium. Conidia (10^4 conidia/ml) were used immediately for the nongerminated conidial assays while conidia (10^5 conidia/ml) were incubated for 7.5 hours at 30° C. to obtain germinating conidia. Serial dilutions of CAY-1 were prepared in the appropriate medium (totaling 225 μl) to which was added 25 μl of the conidial suspensions. The control consisted of 225 μl of medium and 25 μl of the conidial suspension. After mixing, the samples were incubated for 30 min (30° C.). Samples were then spread on potato dextrose agar plates which were incubated at 30° C. for 24 hours. Colonies were then enumerated.
Statistical analyses. ANOVA analyses on ranks for nonparametric data were performed for the bioassays described in this example.

[2] = system: Candida albicans; assay: Effect on C. albicans viability (NCCLS broth dilution M-27A); assay type: cell-based
Procedure: 2. Candida albicans. The effect of CAY-1 on C. albicans viability was determined by the NCCLS methods (National Committee for Clinical Laboratory Standards, Wayne, Pa., 1997. Reference method for broth dilution antifungal susceptibility testing of yeasts. Approved standard M-27A, herein incorporated by reference).

[3] = Aspergillus fumigatus, 0.5 h, read-out: LD95

CC1CCC2(OC1)OC1CC3C4CCC5CC(OC6OC(CO)C(OC7OC(CO)C(O)C(OC8OC(CO)C(O)C(OC9OC(CO)C(O)C(O)C9O)C8O)C7OC7OC(CO)C(O)C(O)C7O)C(O)C6O)C(O)CC5(C)C4CCC3(C)C1C2C (stereo not drawn) [CAY-1]
activity at 1.5 µM ([1]; Aspergillus fumigatus, 0.5 h, germinating, RPMI-1640, 1.5 μM, read-out: Percent of Mean Control): 117% | activity at 2 µM ([1]; Aspergillus fumigatus, 0.5 h, germinating, RPMI-1640, 2.0 μM, read-out: Percent of Mean Control): 118% | activity at 2.5 µM ([1]; Aspergillus fumigatus, 0.5 h, germinating, RPMI-1640, 2.5 μM, read-out: Percent of Mean Control): 114% | activity at 3 µM ([1]; Aspergillus fumigatus, 0.5 h, germinating, RPMI-1640, 3.0 μM, read-out: Percent of Mean Control): 40.7% | activity at 4 µM ([1]; Aspergillus fumigatus, 0.5 h, germinating, RPMI-1640, 4.0 μM, read-out: Percent of Mean Control): 5.1% | activity at 2 µM ([1]; Aspergillus fumigatus, 0.5 h, nongerminated, 1% PDB, 2.0 μM, read-out: Percent of Mean Control): 93.9% | activity at 3 µM ([1]; Aspergillus fumigatus, 0.5 h, nongerminated, 1% PDB, 3.0 μM, read-out: Percent of Mean Control): 80.4% | activity at 4 µM ([1]; Aspergillus fumigatus, 0.5 h, nongerminated, 1% PDB, 4.0 μM, read-out: Percent of Mean Control): 88.5% | activity at 5 µM ([1]; Aspergillus fumigatus, 0.5 h, nongerminated, 1% PDB, 5.0 μM, read-out: Percent of Mean Control): 86.7% | activity at 7.5 µM ([1]; Aspergillus fumigatus, 0.5 h, nongerminated, 1% PDB, 7.5 μM, read-out: Percent of Mean Control): 96.6% | activity at 10 µM ([1]; Aspergillus fumigatus, 0.5 h, nongerminated, 1% PDB, 10.0 μM, read-out: Percent of Mean Control): 101% | activity at 0.5 µM ([1]; Aspergillus fumigatus, 0.5 h, nongerminated, RPMI-1640, 0.5 μM, read-out: Percent of Mean Control): 117% | activity at 1 µM ([1]; Aspergillus fumigatus, 0.5 h, nongerminated, RPMI-1640, 1.0 μM, read-out: Percent of Mean Control): 132% | activity at 1.5 µM ([1]; Aspergillus fumigatus, 0.5 h, nongerminated, RPMI-1640, 1.5 μM, read-out: Percent of Mean Control): 97.4% | activity at 2 µM ([1]; Aspergillus fumigatus, 0.5 h, nongerminated, RPMI-1640, 2.0 μM, read-out: Percent of Mean Control): 109% | activity at 2.5 µM ([1]; Aspergillus fumigatus, 0.5 h, nongerminated, RPMI-1640, 2.5 μM, read-out: Percent of Mean Control): 96.5% | activity at 3 µM ([1]; Aspergillus fumigatus, 0.5 h, nongerminated, RPMI-1640, 3.0 μM, read-out: Percent of Mean Control): 103% | LD95 (concentration killing 95% of conidia) [1, 3]: 4 µM | LD95 (concentration lethal to 95% of conidia) [1, 3]: 5 µg/mL | minimal effective concentration ([1]; Aspergillus fumigatus, 0.5 h, read-out: concentration achieving significant lethality): 3 µM and 3.7 µg/mL | minimal effective concentration ([1]; Aspergillus fumigatus, 0.5 h, read-out: concentration required for statistically significant viability reduction): 12.4 µg/mL | minimal effective concentration ([1]; Aspergillus fumigatus, 0.5 h, germinating conidia, RPMI-1640, p=0.0002, read-out: concentration required for statistically significant viability reduction): 10 µM | Mean No. of Colonies ([1]; germinating, 1% PDB, 2.0 μM): 44.1 | Mean No. of Colonies ([1]; germinating, 1% PDB, 3.0 μM): 22.9 | Mean No. of Colonies ([1]; germinating, 1% PDB, 4.0 μM): 6.6 | Mean No. of Colonies ([1]; germinating, 1% PDB, 5.0 μM): 2.8 | Mean No. of Colonies ([1]; germinating, 1% PDB, 7.5 μM): 1.3 | Mean No. of Colonies ([1]; germinating, 1% PDB, 10.0 μM): 0.1 | Mean No. of Colonies ([1]; germinating, RPMI-1640, 0.5 μM): 10.9 | Mean No. of Colonies ([1]; germinating, RPMI-1640, 1.0 μM): 12.4 | Mean No. of Colonies ([1]; germinating, RPMI-1640, 1.5 μM): 13.8 | Mean No. of Colonies ([1]; germinating, RPMI-1640, 2.0 μM): 13.9 | Mean No. of Colonies ([1]; germinating, RPMI-1640, 2.5 μM): 13.5 | Mean No. of Colonies ([1]; germinating, RPMI-1640, 3.0 μM): 4.8 | Mean No. of Colonies ([1]; germinating, RPMI-1640, 4.0 μM): 0.6 | viability of nongerminated conidia ([1]; nongerminated conidia, either test medium): not affected | Mean No. of Colonies ([1]; nongerminated, 1% PDB, 2.0 μM): 57.4 | Mean No. of Colonies ([1]; nongerminated, 1% PDB, 3.0 μM): 49.1 | Mean No. of Colonies ([1]; nongerminated, 1% PDB, 4.0 μM): 54.1 | Mean No. of Colonies ([1]; nongerminated, 1% PDB, 5.0 μM): 53.0 | Mean No. of Colonies ([1]; nongerminated, 1% PDB, 7.5 μM): 59.0 | Mean No. of Colonies ([1]; nongerminated, 1% PDB, 10.0 μM): 61.8 | Mean No. of Colonies ([1]; nongerminated, RPMI-1640, 0.5 μM): 27.0 | Mean No. of Colonies ([1]; nongerminated, RPMI-1640, 1.0 μM): 30.6 | Mean No. of Colonies ([1]; nongerminated, RPMI-1640, 1.5 μM): 22.5 | Mean No. of Colonies ([1]; nongerminated, RPMI-1640, 2.0 μM): 25.1 | Mean No. of Colonies ([1]; nongerminated, RPMI-1640, 2.5 μM): 22.3 | Mean No. of Colonies ([1]; nongerminated, RPMI-1640, 3.0 μM): 23.8 | IC50 [2]: 3.1 µM and 3.8 µg/mL | IC90 [2]: 6.2 µM and 7.7 µg/mL | minimal effective concentration ([2]; read-out: lowest effective level in vitro): ~3 µM
